Results taken from patent publication US10149887B2, “Peptides and peptidomimetics in combination with t cell activating and/or checkpoint inhibiting agents for cancer treatment” (CanBas Co., Ltd., priority 2015, dated 2018).
Square brackets hold non-standard residues; d marks the D form. Peptide text beside a SMILES is read from it. dPhe(4-NO2) = N[C@H](Cc1ccc([N+](=O)[O-])cc1)C(=O)O; dPhe(F5) = N[C@H](Cc1c(F)c(F)c(F)c(F)c1F)C(=O)O; dBpa = N[C@H](Cc1ccc(C(=O)c2ccccc2)cc1)C(=O)O; dCha = N[C@H](CC1CCCCC1)C(=O)O

Key:
Jurkat cells [1] = assay: Side effect of peptide used alone: Jurkat cell cycle disturbance (flow cytometry); format: cell-based; details: dose that produced Jurkat cell cycle disturbance, peptide alone
Protocol: Cell-cycle analysis The cell cycle status of the cells treated with bleomycin or adriamcin were analyzed by flow cytometry as described by Kawabe (1997) Nature 385:454-458. In brief, two million cells were re-suspended and incubated in 200 μl Krishan's solution (0.1% Sodium citrate, 50 μg/ml PI, 20 μg/ml RNase A and 0.5% NP-40) for 1 hr at 4° C. and analyzed by a flow cytometry, FACScan™ (Beckton Dickinson, Mountain View, Calif.) with the program CELLQuest™ (Beckton Dickinson).
(§1) The “Appearance of side effect when used alone” indicates the peptide/peptidomimetic dose that produced Jurkat cell cycle disturbance, i.e., the appearance of significant amounts of SubG1 cells (dead cells) or cells in which the DNA content of each varies more than usual. […] The “G2 abrogating dose” indicates the peptide/peptidomimetic dose with 40 μg/ml bleomycine that produced detectable G2 checkpoint abrogation activity following treatment for 24 hours. The “Appearance of side effect when used with colchicine” indicates the peptide/peptidomimetic dose with 5 μg/ml colchicine that produced Jurkat cell cycle disturbance following treatment for 24 hours.

Jurkat cells [2] = assay: G2 checkpoint abrogation, flow cytometry of bleomycin treated Jurkat cells; format: cell-based, human; details: dose with 40 μg/ml bleomycine giving detectable G2 checkpoint abrogation, 24 hours
Protocol: Flow cytometry analysis of G2 checkpoint abrogation was performed using human leukemia derived Jurkat cell line. In brief, cultured cells were treated with various doses of peptide/peptidomimetic and 40 μg/ml bleomycine for 24 hr. The DNA of the cells was stained with propidium iodide and analyzed by flow cytometry.
The G2 checkpoint abrogating activity of various arginine rich sequences at different doses on cells treated with bleomycine was studied. Briefly, peptides were added to culture medium of Jurkat cells with bleomycin (40 μg/ml) at 0.2 μg/ml, 0.39 μg/ml, 0.78 μg/ml, 1.56 μg/ml, 3.125 μg/ml, 6.25 μg/ml, 12.5 μg/ml, 25 μg/ml and 50 μg/ml. Cells were subsequently harvested after 24 hours, stained with Krishan's solution, and analyzed with flow cytometry as previously described.

[3] = Human serum treatment analysis (residual G2 checkpoint abrogating activity); format: in vitro ADME; details: 37 degrees
Protocol: Serum analysis was performed to determine the stability of peptides in mouse and human serum. Briefly, peptides (10 mM or 2.5 mM) were incubated with freshly prepared human serum at 37 degrees for 1 hr. […] Jurkat cells were treated with the serum with or without peptides and bleomycin (40 μg/ml) and incubated for 24 hr. The population of G2 phase cells was determined by flow cytometry as previously described. The residual G2 checkpoint abrogating activity of serum treated peptides were determined by comparing the % G2 cells of the treated serum and the standard curve produced with medium treated peptides, bleomycin and Jurkat cells (Table 5A).

Jurkat cells [4] = assay: M phase checkpoint abrogation / non specific toxicity, colchicine treated Jurkat cells; format: cell-based; details: dose with 5 μg/ml colchicine that produced Jurkat cell cycle disturbance, 24 hours
Protocol: Flow cytometry analysis of M phase checkpoint abrogation by the compounds was performed using human T cell leukemia Jurkat cell line treated with colchicine (5 μg/ml or 0.5 μg/ml) and various doses of peptide/peptidomimetics for 24 hr (FIG. 12). The DNA of the cells was stained and analyzed by flow cytometry as described above.
as §1
A comparison between G2 checkpoint abrogating activity and non specific toxicity (M checkpoint abrogation) by CB501 was performed. In brief, Jurkat cells were treated with 40 μg/ml bleomycin or 0.5 μg/ml colchicine for G2 checkpoint abrogating activity and non specific toxicity, respectively. The DNA amount in each of the treated cells was analyzed by flow cytometry, as previously described.

[5] = target: T1, recombinant human full length Chk1 (Homo sapiens, UniProt O14757); assay: In vitro kinase inhibition (CycLex), phosphorylation of serine 216 on GST-Cdc25C; format: biochemical
T1 construct: baculovirus derived recombinant human full length Chk1 with histidine tag; histidine tag; host or cells: baculovirus system (insect cells) for Chk1; E. coli for the GST-Cdc25C substrate
T1 sequence (O14757 1-476): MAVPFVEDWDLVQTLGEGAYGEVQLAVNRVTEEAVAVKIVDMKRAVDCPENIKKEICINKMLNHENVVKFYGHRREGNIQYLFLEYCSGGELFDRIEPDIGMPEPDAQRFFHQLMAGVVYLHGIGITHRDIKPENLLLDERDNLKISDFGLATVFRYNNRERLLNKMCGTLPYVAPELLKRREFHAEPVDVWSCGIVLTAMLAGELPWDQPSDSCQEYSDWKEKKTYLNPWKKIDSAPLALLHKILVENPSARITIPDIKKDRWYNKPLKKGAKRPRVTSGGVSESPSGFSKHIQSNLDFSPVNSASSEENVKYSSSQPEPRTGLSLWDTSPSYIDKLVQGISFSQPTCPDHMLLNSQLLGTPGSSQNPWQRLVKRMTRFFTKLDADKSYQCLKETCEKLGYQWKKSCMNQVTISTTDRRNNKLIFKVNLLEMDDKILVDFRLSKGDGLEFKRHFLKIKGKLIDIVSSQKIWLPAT
Protocol: (§2) In vitro kinase inhibition analysis was performed by CycLex, Co. Ltd., Nagano, Japan. Briefly, baculovirus derived recombinant human full length Chk1 with histidine tag or E. Coli derived recombinant human full length Chk2 fused with GST were used as kinases. E. Coli derived recombinant GST-Cdc25C (amino acis 167-267) was used as a substrate. Reaction conditions were 20 mM Hepes-KOH (pH7.5), 1 mM DTT, 80 μg/ml BSA, 10 mM MgCl2 and […] at 30 degree for 60 min. The phosphorylation of serine 216 on GST-Cdc25C was detected by anti-Cdc25C-phosphorylated 5216 antibody with enzyme linked immune assay.

[6] = target: T2, recombinant human full length Chk2 (Homo sapiens, UniProt O96017); assay: as above; format: biochemical
T2 construct: E. Coli derived recombinant human full length Chk2 fused with GST; host or cells: E. coli
T2 sequence (O96017 whole entry, the tested form may be a part): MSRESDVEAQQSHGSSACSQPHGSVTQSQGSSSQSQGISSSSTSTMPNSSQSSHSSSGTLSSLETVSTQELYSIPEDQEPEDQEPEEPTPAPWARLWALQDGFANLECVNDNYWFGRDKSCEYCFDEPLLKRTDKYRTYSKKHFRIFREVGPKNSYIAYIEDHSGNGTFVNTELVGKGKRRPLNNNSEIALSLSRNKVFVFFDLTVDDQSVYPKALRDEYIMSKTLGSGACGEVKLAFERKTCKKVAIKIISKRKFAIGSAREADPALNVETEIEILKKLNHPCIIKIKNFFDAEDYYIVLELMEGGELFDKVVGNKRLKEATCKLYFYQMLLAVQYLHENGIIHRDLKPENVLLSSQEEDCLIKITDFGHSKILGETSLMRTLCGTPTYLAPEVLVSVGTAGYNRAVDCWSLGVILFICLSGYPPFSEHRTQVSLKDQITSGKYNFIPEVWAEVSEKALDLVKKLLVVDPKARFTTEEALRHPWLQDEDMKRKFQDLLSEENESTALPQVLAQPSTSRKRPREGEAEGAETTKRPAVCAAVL
Protocol: as §2

Structure (SMILES)	Appearance of side effect when used alone (Jurkat cells [1])	G2 abrogating dose (Jurkat cells [2])	Residual activity of peptide after 1 hr human serum treatment [3]	Appearance of side effect when used with Colchicine (Jurkat cells [4])	IC50 [5]	IC50 [6]
N=C(N)NCCC[C@H](NC(=O)CNC(=O)[C@@H](N)Cc1ccc(O)cc1)C(=O)N[C@@H](CCCCN)C(=O)N[C@@H](CCCCN)C(=O)N[C@@H](CCCNC(=N)N)C(=O)N[C@@H](CCCNC(=N)N)C(=O)N[C@@H](CCC(N)=O)C(=O)N[C@@H](CCCNC(=N)N)C(=O)N[C@@H](CCCNC(=N)N)C(=O)N[C@@H](CCCNC(=N)N)C(=O)N[C@@H](CC1CCCCC1)C(=O)N[C@@H](Cc1c(F)c(F)c(F)c(F)c1F)C(=O)N[C@@H](CCCNC(=N)N)C(=O)N[C@@H](CO)C(=O)N1CCC[C@H]1C(=O)N[C@@H](CO)C(=O)N[C@@H](Cc1ccc(O)cc1)C(=O)N[C@@H](Cc1ccc(O)cc1)C(=O)O [CBP413, (1-Tyr)(1-Gly)(1-Arg)(1-Lys)(1-Lys)(1-Arg)(1-Arg)(1-Gln)(1-Arg)(1-Arg)(1-Arg)(1-Cha)(1-Phe-2,3,4,5,6-F)(1-Arg)(1-Ser)(1-Pro)(1-Ser)(1-Tyr)(1-Tyr)]	>25 µM	≥1.56 µM	<0.4% of original	>25 µM		
N=C(N)NCCC[C@@H](NC(=O)[C@@H](CCCNC(=N)N)NC(=O)[C@@H](CCC(N)=O)NC(=O)[C@@H](CCCNC(=N)N)NC(=O)[C@@H](CCCNC(=N)N)NC(=O)[C@@H](CCCNC(=N)N)NC(=O)[C@@H](CC1CCCCC1)NC(=O)[C@@H](Cc1c(F)c(F)c(F)c(F)c1F)NC(=O)[C@@H](CO)NC(=O)[C@@H](Cc1c[nH]c2ccccc12)NC(=O)[C@@H](CO)NC(=O)[C@@H](Cc1ccc(C(=O)c2ccccc2)cc1)NC(=O)[C@H](N)Cc1ccc(O)cc1)C(=O)O [CBP500, (d-Tyr)(d-Bpa)(d-Ser)(d-Trp)(d-Ser)(d-Phe-2,3,4,5,6-F)(d-Cha)(d-Arg)(d-Arg)(d-Arg)(d-Gln)(d-Arg)(d-Arg)] (H-[dY][dBpa][dS][dW][dS][dPhe(F5)][dCha][dR][dR][dR][dQ][dR][dR]-OH; N-terminus and C-terminus assumed)	>50 µM	≥0.39 µM		>12.5 µM	5.6 µM	8 µM
N=C(N)NCCC[C@@H](NC(=O)[C@@H](CCCNC(=N)N)NC(=O)[C@@H](CCC(N)=O)NC(=O)[C@@H](CCCNC(=N)N)NC(=O)[C@@H](CCCNC(=N)N)NC(=O)[C@@H](CCCNC(=N)N)NC(=O)[C@@H](CC1CCCCC1)NC(=O)[C@@H](Cc1c(F)c(F)c(F)c(F)c1F)NC(=O)[C@@H](CO)NC(=O)[C@@H](Cc1c[nH]c2ccccc12)NC(=O)[C@@H](CO)NC(=O)[C@@H](CC(=O)O)NC(=O)[C@H](N)Cc1ccc(C(=O)c2ccccc2)cc1)C(=O)O [CBP505, (d-Bpa)(d-Asp)(d-Ser)(d-Trp)(d-Ser)(d-Phe-2,3,4,5,6-F)(d-Cha)(d-Arg)(d-Arg)(d-Arg)(d-Gln)(d-Arg)(d-Arg)] (H-[dBpa][dD][dS][dW][dS][dPhe(F5)][dCha][dR][dR][dR][dQ][dR][dR]-OH; N-terminus and C-terminus assumed)					63.4 µM	> 100 µM
N=C(N)NCCC[C@@H](NC(=O)[C@@H](CCCNC(=N)N)NC(=O)[C@@H](CCC(N)=O)NC(=O)[C@@H](CCCNC(=N)N)NC(=O)[C@@H](CCCNC(=N)N)NC(=O)[C@@H](CCCNC(=N)N)NC(=O)[C@@H](CC1CCCCC1)NC(=O)[C@@H](Cc1ccc([N+](=O)[O-])cc1)NC(=O)[C@@H](CO)NC(=O)[C@@H](Cc1c[nH]c2ccccc12)NC(=O)[C@@H](CO)NC(=O)[C@H](N)Cc1ccc(C(=O)c2ccccc2)cc1)C(=O)O [CBP603, (d-Bpa)(d-Ser)(d-Trp)(d-Ser)(d-Phe4No2)(d-Cha)(d-Arg)(d-Arg)(d-Arg)(d-Gln)(d-Arg)(d-Arg)] (H-[dBpa][dS][dW][dS][dPhe(4-NO2)][dCha][dR][dR][dR][dQ][dR][dR]-OH; N-terminus and C-terminus assumed)			>50% of original		15.5 µM	18.1 µM
